Results published in US9334272B2, “Derivatives of purinic and pyrimidinic antiviral agents and use thereof as potent anticancer agents” (Ramot at Tel-Aviv University Ltd., priority 2007, dated 2016).

Legend:
[1] = test system: 4T1 murine breast carcinoma; test: Metastatic 4T1 breast carcinoma model; format: in vivo, mice; settings: 4T1 model; for anti-cancer activity (number of metastases and lung weight): 40 or 80 mg/kg, FIG. 18
Method: The syngeneic murine breast carcinoma metastatic model was performed with 8-10 weeks old BALB-c mice implanted with 4T1 cells. When the tumor volume reached 75-180 mm^3 (after ˜10 days), treatment was initiated for an additional 21 days. At termination, the animals were sacrificed and their lungs removed, stained with Bouin's solution, and lung lesions were scored under an illuminated magnifying glass.

proteasome = molecular target: T1, proteasome (Homo sapiens, UniProt P28074); test: Proteasome activity assay, U-251 cells; format: cell-based; settings: 4 or 24 hours, alone or in combination
T1 construct: proteasome activity in U-251 cells treated for 4 or 24 hours; endogenous in cells; host or cells: U-251 cells (lysates of treated cells)
T1 sequence (P28074 60-263): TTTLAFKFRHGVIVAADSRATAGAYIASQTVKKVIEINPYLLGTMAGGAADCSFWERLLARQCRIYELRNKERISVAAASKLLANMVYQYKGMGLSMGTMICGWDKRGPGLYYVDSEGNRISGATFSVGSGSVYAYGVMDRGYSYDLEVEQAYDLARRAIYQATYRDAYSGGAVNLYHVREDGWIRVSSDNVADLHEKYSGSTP
Method: The peptidase or chymotrypsin-like activity of the proteasome was assayed using N-succinyl-Leu-Leu-Val-Tyr-7-amido-4-methylcoumarin. The lysates (100 μL) were incubated with 13 (M of the substrate in 100 mM Tris, pH 7.5, for 1 hour with shaking at room temperature. The reaction was stopped by addition of ice-cold ethanol, and the samples were centrifuged for 5 minutes at 2500 g. The supernatants were collected and the fluorescence was measured with excitation/emission filters of 390/460 nm using the FluoStar fluorimeter. The protein concentration was determined using a BCATM kit (Pierce) and the proteasome activity was derived from the ratio of fluorescence at 460 nm/(g of protein. The percentage of proteasome activity was calculated relative to untreated cells.

U-251 cells [2] = test: Cell cycle analysis (propidium iodide flow cytometry), U-251 cells; format: cell-based, human; settings: 24 hours
Method: Cells (4×10^5) were seeded in 35 mm culture dishes and after 24 hours were starved in medium without serum for an additional 24 hours, and then treated with the drug for an additional 24 hours. The cells were then trypsinized to a single cell suspension in PBS, washed, and resuspended in PBS at a concentration of 10^6 cells/mL. The cells were fixed with 70% ethanol for 30 minutes at 4° C., centrifuged and resuspended in 1 ml PBS containing 0.1% Tween 20 and 0.05% bovine serum albumin (BSA). RNase free of DNase was added, and the cell suspension (10^6 cells) was incubated at […] for 30 minutes. The cell suspension was then chilled on ice to a temperature in the range of 2 to 8° C. Propidium iodide (50 μg/mL) was added to the cell suspension, which was than kept in the dark. Red fluorescence (>630 nm) was analyzed on the flow cytometer.

U-251 cells [3] = test: Reactive oxygen species by DCF-DA FACS, U-251 cells; format: cell-based, human; settings: 2 hour treatment
Method: ROS levels were determined by FACS analysis of U-251 cells treated with dichlorodihydrofluorescein diacetate (DCF-DA), which becomes fluorescent when oxidized.

[4] = test system: rat primary cardiomyocytes; test: ROS production (DCF-DA) in rat primary cardiomyocytes; format: cell-based; settings: 2 μM
Method: Neonatal rat ventricular cardiomyocytes were isolated and cultured in collagen coated culture dishes as described by Shalitin et al., 1996. Growth medium contained DMEM:Ham's F12 (1:1), fetal calf serum (10%) and antibiotics. Treatment was administered to spontaneously beating cardiomyocytes 48 hours after plating.

4T1 cells = test: Hoechst viability assay, 4T1 breast carcinoma cells (Dox combination); format: cell-based, murine; settings: Mus musculus, 72 hours, 3 experiments
Method: (§1) Cells (in quadruplicate) at the specified density were suspended in 200 μL medium supplemented with 10% FCS seeded in 96-well plates for 24 hours, then exposed to the drugs for 72 hours. The viability of the cells was determined by Hoechst fluorescent assay as described by Nudelman et al., 2005. Leukemic cell viability after 72 hours of treatment was determined by an MTT (3-(4,5-dimethylthiazol-2-yl)-2,5-diphenyltetrazolium bromide) assay as described by Levovich et al., 2007.
(§2) IC50 values were determined by linear regression of the percentage of survival following drug titration.
The combination index for drug interaction was calculated by Chou's Median Effect Analysis (MEA) [Chou, 2006]. The combination index (CI) was defined as CI=D1/(DM)1+D2/(DM)2, where D1 and D2 are the doses of drug 1 and drug 2, respectively, (DM)1 and (DM)2 are the doses of drug 1 and drug 2 and their mixture (in a specified ratio) required to produce a median effect, e.g., IC50. CI<1, =1 or >1 indicates synergism, additive effect, and antagonism respectively.

U-251 cells [5] = test: Hoechst viability assay, U-251 glioma cells; format: cell-based, human; settings: Homo sapiens, 72 hours, Hoechst, read-out: IC50
Method: as §1, §2

U-251 cells [6] = test: Apoptosis/cell death by annexin V-FITC and propidium iodide FACS, U-251 cells; format: cell-based; settings: U-251 cells, 24 hours
Method: Cells were seeded in six-well plates (10^5 cells/well) for 24 hours and were then treated as specified, trypsinized, washed with PBS, double-stained with annexin V-FITC (fluorescein isothiocyanate) and propidium iodide, according to the manufacturer's instructions and subjected to flow cytometry analysis (FACScalibur cytometer, Becton Dickinson).

22RV1 cells = test: Hoechst viability assay, 22RV1 prostate carcinoma cells; format: cell-based, human; settings: Homo sapiens, 72 hours, Hoechst, read-out: IC50
Method: as §1, §2

U-251 cells [7] = test: Mitochondrial membrane potential (JC-1 staining), U-251 cells; format: cell-based, human; settings: 60 μM, 24 hour treatment
phospho-H2AX (Ser139) = test: Phospho-H2AX Western blot, U-251 cells; format: cell-based, human; settings: 60 μM, 0.5, 2 or 24 hours, peak after 2 hours
Method: Cell lysates or acid extracted histones were solubilized in a concentrated (×4) loading buffer (62.5 mM Tris-HCl, pH 6.8, 1% SDS, 10% glycerol v/v, 1% dithiothreitol (DTT) and 0.1 mg/ml bromophenol blue). Proteins (10-40 μg) were run on SDS-PAGE, transferred to a nitrocellulose membrane (Schleicher & Schuell, Germany) and probed with the primary antibodies, followed by incubation with a horseradish peroxidase (HRP)-goat anti-rabbit IgG or HRP-rabbit anti-mouse IgG as secondary antibodies. HRP bound to the secondary antibodies was visualized by the enhanced chemiluminescence method using the Western Blotting Luminol reagent (Santa Cruz, Calif., USA). The membrane was exposed for 5 minutes to Chemiluminescence BioMax light film (Kodak, USA) and the intensity of the bands was measured with a VersaDoc instrument with a Quantityl program (Bio-Rad, USA). The fold increase of each specific protein was determined by the ratio of band intensities of treated and untreated cells, normalized to loading control (actin or total histone H3).

[8] = test system: 3LLD122 Lewis lung carcinoma; test: Metastatic Lewis lung carcinoma (3LL) model; format: in vivo, mice; settings: Compound 6 30 mg/kg, Compound 7 25 mg/kg, per os thrice per week, 21 days; p<0.02 vs acyclovir
Method: Female C57/BL mice, 7-10 weeks old, were acclimated for ten days. All in vivo experiments were conducted according to the NIH Laboratory Animal Care Guidelines and in accordance with the guidelines and approval of the Tel Aviv University Committee for Animal Experimentation.
The subclone 3LLD122 of 3LL used in the study was selected for its aggressive and invasive nature. […] The animals were sacrificed after 21 days of treatment, their lungs were weighed, stained with Bouin's fixative and the metastatic lesions were scored double-blindly.

[9] = Acute toxicity assay in mice; format: in vivo; settings: male, mouse, in vivo; single per os dose, ICR mice
Text: (§3) Male ICR mice, 8 weeks old (Harlan, Israel) were acclimated for 10 days before administration of the tested compounds. The animals were monitored for two weeks and weighed three times per week.

ICR mice = test: Acute toxicity assay in mice; format: in vivo; settings: 2 weeks
Text: as §3

acetylated histone H4 = test: In vivo histone H4 acetylation in 4T1 tumors (Western blot); parameters: species or system mice; settings: 100 mg/kg each, 4 hours after treatment, vs vehicle
Method: For the determination of in vitro histone acetylation, 2.5-3×10^6 cells, seeded in 100 mm culture dishes, were supplemented with RPMI medium containing 10% heat inactivated FCS and were treated with the drugs the following day. At the specified times post-treatment, the cells were removed with a rubber policeman, centrifuged, washed, lysed with lysis buffer (PBS, Nonidet® NP-40 1%, sodium deoxycholate 0.5%, sodium dodecyl sulfate (SDS) 0.1%, 1 mM phenylmethylsulfonyl fluoride (PMSF), 1 mM sodium orthovanadate, and 1 μM each of leupeptin and pepstatin) and centrifuged at 10,000 g for 10 minutes at 4° C. […] The extract was then lyophilized, and protein concentration was determined with a BCA kit (Pierce, USA). […] The fold increase of acetylated histones was determined by the ratio of band intensities of treated and untreated cells or mice, normalized to loading control (total histone H3).
Cell lysates or acid extracted histones were solubilized in a concentrated (×4) loading buffer (62.5 mM Tris-HCl, pH 6.8, 1% SDS, 10% glycerol v/v, 1% dithiothreitol (DTT) and 0.1 mg/ml bromophenol blue). […] The membrane was exposed for 5 minutes to Chemiluminescence BioMax light film (Kodak, USA) and the intensity of the bands was measured with a VersaDoc instrument with a Quantityl program (Bio-Rad, USA). […]

SMILES: CCCCCC(=O)Nc1nc2c(ncn2COCCOC(=O)CCCCC)c(=O)[nH]1 [Compound 20, N-hexanoyl-9-(2-hexanoyloxy)-ethoxymethylguanine]
- anti-cancer activity (number of metastases and lung weight) [1]: little, if any anticancer activity

SMILES: CCCC(CCC)C(=O)O [valproic acid, reference compound]
- inhibitory effect on proteasome activity (proteasome): only a marginal inhibitory effect
- phase of cell-cycle arrest (U-251 cells [2]; 1 mM): G2-M phase
- Percentage of cells in G0-G1 stage (U-251 cells [2]; 1000 μM): 20.3%
- Percentage of cells in G2-M stage (U-251 cells [2]; 1000 μM): 47.5%
- Percentage of cells in S stage (U-251 cells [2]; 1000 μM): 32.5%
- level of oxidation in cells (ROS) (U-251 cells [3]): little if any effect

SMILES: COc1cccc2c1C(=O)c1c(O)c3c(c(O)c1C2=O)C[C@@](O)(C(=O)CO)C[C@@H]3O[C@H]1C[C@H](N)[C@H](O)[C@H](C)O1 [doxorubicin, reference compound]
- production of ROS [4]: increased dramatically the production of ROS
- IC50 (4T1 cells): 16.5 nM

SMILES: CCCCCCCC(=O)Nc1nc2c(ncn2COCCOC(=O)CCCCCCC)c(=O)[nH]1 [Compound 8, N-octanoyl-9-(2-octanoyloxy)ethoxymethylguanine]
- anti-cancer activity (number of metastases and lung weight) [1]: little, if any anticancer activity

SMILES: CCCC(CCC)C(=O)OCCOCn1cnc2c(=O)[nH]c(N)nc21 [Compound 12, 9-(2-valproyloxy)ethoxymethylguanine]
- IC50 (U-251 cells [5]): 251 ± 12 µM
- percentage of apoptotic cells (U-251 cells [6]): increased the percentage of apoptotic cells in a dose dependent manner
- IC50 (22RV1 cells): 241 ± 12 µM
- mitochondrial membrane potential (U-251 cells [7]): no apparent effect

SMILES: O=C(/C=C/c1ccccc1)Nc1nc2c(ncn2COCCOC(=O)/C=C/c2ccccc2)c(=O)[nH]1 [Compound 22, N-cinnamoyl-9-(2-cinnamoyloxy)-ethoxymethylguanine]
- level of phosphorylated H2AX (phospho-H2AX (Ser139)): induced an increase in the level of phosphorylated H2AX
- mitochondrial membrane potential (U-251 cells [7]): no apparent effect

SMILES: CCCC(=O)Nc1nc2c(ncn2COCCOC(=O)CCC)c(=O)[nH]1 [Compound 7, N-butyryl-9-(2-butyryloxy)ethoxymethylguanine]
- number of lung macro-lesions (anti-metastatic activity) [8]: significant anti-metastatic activity
- LD50 at 2 weeks [9]: > 750 mg/kg
- Survival (%) (ICR mice; single per os dose 150 mg/kg): 100%
- Survival (%) (ICR mice; single per os dose 200 mg/kg): 100%
- Survival (%) (ICR mice; single per os dose 250 mg/kg): 100%
- Survival (%) (ICR mice; single per os dose 500 mg/kg): 100%
- Survival (%) (ICR mice; single per os dose 750 mg/kg): 100%
- lung weight ([1]; 25 mg/kg, p<0.05): reduction in lung weight
- number of observed lung lesions ([1]; 25 mg/kg, p<0.05): reduction in the number of observed lung lesions
- anti-cancer activity (number of metastases and lung weight) [1]: significant anti-cancer activity
- levels of acetylated H4 in tumors (acetylated histone H4): significantly higher levels of acetylated H4

SMILES: CCCC(CCC)C(=O)Nc1nc2c(ncn2COCCO)c(=O)[nH]1 [Compound 23, N-valproyl-9-(2-hydroxy)ethoxymethylguanine]
- IC50 (U-251 cells [5]): > 750 µM
- IC50 (22RV1 cells): 402 ± 22 µM
- mitochondrial membrane potential (U-251 cells [7]): no apparent effect
